Common to all, as to format: in vivo
For one test, the system named is Lucilia cuprina larvae. In words: whole plant or invertebrate. The conditions noted are these: 48 h, read-out: activity (mortality in %). On the procedure: (§1) Solvent: dimethyl sulfoxide
Approximately 20-30 (Lucilia cuprina larvae) are transferred into a test tube containing 1 cm^3 of minced horse meat and 0.5 ml aqueous dilution of test compound. After 2 days, mortality in % is determined.

In a further test the test system is Aulacophora femoralis. In words: whole plant or invertebrate. The conditions noted are these: in Cucumis sativus, 168 h, read-out: mortality (control efficacy). The text has this: The test solution has been prepared as described in biological test example 1.
Cucumber leaves were immersed in a test solution that had been diluted to a predetermined concentration with water. The leaves were air-dried and then put in a plastic cup containing sterilized black soil. 5 Aulacophora femoralis second instar larvae were released in the cup.

The test system of a further test is Ctenocephalides felis. Kind of test: whole plant or invertebrate. The conditions noted are these: 48 h, read-out: activity (mortality in %). On the procedure: as §1
Approximately 10 to 15 adult unfed (Ctenocepahlides felis) are placed in flea chambers. […] The blood chamber is heated to 37° C. whereas the flea chamber is kept at room temperature. After 2 days, mortality in % is determined. 100% means that all the fleas have been killed; 0% means that none of the fleas have been killed.

For a further test, the system named is Musca domestica. Kind of test: whole plant or invertebrate. The conditions noted are these: 48 h, read-out: activity (mortality in %). On the procedure: as §1
Prior to the assay, a piece or kitchen sponge is soaked with a mixture of sugar and compound solution and placed into a container. 10 adults (Musca domestica) are placed into the container and closed with a perforated lid. After 2 days, mortality in % is determined. 100% means that all the flies have been killed; 0% means that none of the flies have been killed.

For test [1], the system named is Boophilus microplus. In words: Boophilus microplus test (dip). The conditions noted are these: Rhipicephalus microplus, 168 h, read-out: activity (mortality in %). On the procedure: as §1
Eight to ten adult engorged female Boophilus microplus ticks are placed in perforated plastic beakers and immersed in aqueous compound solution for one minute. Ticks are transferred to a filter paper in a plastic tray. Egg deposition of fertile eggs is monitored after. After 7 days, mortality in % is determined. 100% means that all the ticks have been killed; 0% means that none of the ticks have been killed.

In test [2] the test system is Boophilus microplus. In words: whole plant or invertebrate. The conditions noted are these: Rhipicephalus microplus, 168 h, read-out: activity (mortality in %; 100% means all eggs infertile). On the procedure: as §1
Five adult engorged female ticks (Boophilus microplus) are injected with compound solution into the abdomen. Ticks are transferred into replica plates and incubated in a climate chamber for a period of time. Egg deposition of fertile eggs is monitored. After 7 days, mortality in % is determined. 100% means that all eggs are infertile; 0% means that all eggs are fertile.

In a further test the test system is Phaedon cochleariae. In words: Phaedon cochleariae test (spray application). The conditions noted are these: in Brassica rapa, foliar, 168 h, read-out: activity (mortality in %). On the procedure: Solvent: 78.0 parts by weight of acetone • • 1.5 parts by weight of dimethylformamide Emulsifier: 0.5 parts by weight of alkylaryl polyglycolether
To produce a suitable preparation of active compound, 1 part by weight of active compound is mixed with the stated amount of solvent and emulsifier, and the concentrate is diluted with emulsifier-containing water to the desired concentration. Chinese cabbage (Brassica pekinesis) leaf-disks are sprayed with a preparation of the active ingredient of the desired concentration. Once dry, the leaf disks are infested with mustard beetle larvae (Phaedon cochleariae).
After 7 days, mortality in % is determined. 100% means that all beetle larvae have been killed and 0% means that none of the beetle larvae have been killed.

In another test the test system is Spodoptera frugiperda. Kind of test: Spodoptera frugiperda test (spray application). The conditions noted are these: 168 h, application rate 500 g/ha, sprayed maize leaf sections, larvae, 7 days. The text has this:
Solvent: 78.0 parts by weight acetone • 1.5 parts by weight dimethylformamide Wetting agent 0.5 parts by weight alkylarylpolyglcolether
To produce a suitable preparation of the active compound, 1 part by weight of active compound is mixed with the stated amount of solvent and emulsifier, and the concentrate is dilutes with emulsifier-containing water to the desired concentration.
Maize (Zea mais) leaf sections are sprayed with a preparation of the active ingredient of the desired concentration. Once dry, the leaf sections are infested with fall armyworm larvae (Spodoptera frugiperda). After 7 days, mortality in % is determined. 100% means that all caterpillars have been killed and 0% means that none of the caterpillars have been killed.

For the next test, the system named is Tetranychus urticae. In words: Test on Tetranychus urticae (spray test). The conditions noted are these: active compound concentration 100 ppm; adult mites on pinto bean sprayed; 7 days. On the procedure: The test solution has been prepared as described in biological test example 1. 50 to 100 adult Tetranychus urticae were placed on pinto bean leaves at true leaf stage having two main leaves that had been grown in a pot (6 cm diameter). After 1 day, a generous amount of the test solution which has been diluted with water to the predetermined concentration was sprayed thereto using a spray gun.
After keeping the pot in a green house for 7 days, acaricidal ratio was calculated. 100% means that all the mites have been killed; 0% means that none of the mites have been killed.

Where two headings read alike, the source gives them in different places.

In the case of `O=C1OCc2cc(C3=NOC(c4cc(Cl)cc(Cl)c4)(C(F)(F)F)C3)ccc21` (centres unmarked) [Example 1-2, 5-[5-(3,5-dichlorophenyl)-5-(trifluoromethyl)-4,5-dihydroisoxazol-3-yl]-2-benzofuran-1(3H)-one], the mortality at 100 ppm in the test on Lucilia cuprina larvae (in Equus caballus) was ≥ 80%; with Aulacophora femoralis it was 100%; in the test with Ctenocephalides felis (in Bos taurus), ≥ 80%; with Musca domestica, ≥ 80%; with Boophilus microplus [1], ≥ 80%. The mortality at 0.02 mg in the test with Boophilus microplus [2] was ≥ 80%. Further, the figures for the mortality at 500 g/ha in the test on Phaedon cochleariae and with Spodoptera frugiperda were 80% and ≥ 80%, respectively.

With `O=C1c2ccc(C3=NOC(c4cc(Cl)cc(Cl)c4)(C(F)(F)F)C3)cc2CN1Cc1ccccn1` (centres unmarked) [Example 1-58], the “mortality (acaricidal ratio)” value in the test with Tetranychus urticae is listed as “at least 98%”.

On to `FC(F)(F)C1(c2cc(Cl)cc(Cl)c2)CC(c2ccc3c(c2)COC3)=NO1` (centres unmarked) [Example 1-131, 5-(3,5-dichlorophenyl)-3-(1,3-dihydro-2-benzofuran-5-yl)-5-(trifluoromethyl)-4,5-dihydroisoxazole], for which the mortality at 100 ppm was ≥ 80% in the test on Lucilia cuprina larvae (in Equus caballus), 100% with Aulacophora femoralis, ≥ 80% in the test on Ctenocephalides felis (in Bos taurus) and ≥ 80% in the test on Musca domestica. The mortality at 0.02 mg with Boophilus microplus [2] is ≥ 80%.

In the case of `CC(=O)N1Cc2ccc(C3=NOC(c4cc(Cl)cc(Cl)c4)(C(F)(F)F)C3)cc2C1` (centres unmarked) [Example 1-151, 1-{5-[5-(3,5-dichlorophenyl)-5-(trifluoromethyl)-4,5-dihydroisoxazol-3-yl]-1,3-dihydro-2H-isoindol-2-yl}ethanone], the mortality at 100 ppm with Lucilia cuprina larvae (in Equus caballus) is ≥ 80%; with Aulacophora femoralis, 100%. Also, the mortality at 0.02 mg in the test with Boophilus microplus [2] was ≥ 80%.

Consider `CC(=O)N1Cc2cc(C3=NOC(c4cc(Cl)cc(Cl)c4)(C(F)(F)F)C3)ccc2C1=O` (centres unmarked) [Example 1-221, 2-acetyl-5-[5-(3,5-dichlorophenyl)-5-(trifluoromethyl)-4,5-dihydroisoxazol-3-yl]-2,3-dihydro-1H-isoindol-1-one], for which, in the test on Aulacophora femoralis, the mortality at 100 ppm worked out at 100%.

For `N=C1OCc2cc(C3=NOC(c4cc(Cl)cc(Cl)c4)(C(F)(F)F)C3)ccc21` (centres unmarked) [Example 1-232, 5-[5-(3,5-dichlorophenyl)-5-(trifluoromethyl)-4,5-dihydroisoxazol-3-yl]-2-benzofuran-1(3H)-imine], the mortality at 100 ppm in the test on Lucilia cuprina larvae (in Equus caballus) is ≥ 80%; in the test with Aulacophora femoralis it was 100%; with Ctenocephalides felis (in Bos taurus), ≥ 80%; with Musca domestica it was ≥ 80%. Besides, the mortality at 0.02 mg in the test with Boophilus microplus [2] was ≥ 80%.

As to `CC(=O)/N=C1\c2ccc(C3=NOC(c4cc(Cl)cc(Cl)c4)(C(F)(F)F)C3)cc2CN1Cc1ccccn1` (centres unmarked) [Example 1-235, N-[(1E)-5-[5-(3,5-dichlorophenyl)-5-(trifluoromethyl)-4,5-dihydroisoxazol-3-yl]-2-(pyridin-2-ylmethyl)-2,3-dihydro-1H-isoindol-1-ylinden]acetamide], the mortality at 100 ppm in the test on Lucilia cuprina larvae (in Equus caballus), in the test with Ctenocephalides felis (in Bos taurus) and in the test on Musca domestica was ≥ 80% each time. For the same compound, the mortality at 0.02 mg with Boophilus microplus [2] was ≥ 80%.

`N#Cc1ccc2cc(C3=NOC(c4cc(Cl)cc(Cl)c4)(C(F)(F)F)C3)ccc2n1` (centres unmarked) [Example 1-255, 6-[5-(3,5-dichlorophenyl)-5-(trifluoromethyl)-4,5-dihydroisoxazol-3-yl]quinolin-2-carbonitrile]: the mortality at 100 ppm with Lucilia cuprina larvae (in Equus caballus), in the test on Ctenocephalides felis (in Bos taurus) and in the test on Musca domestica was ≥ 80% throughout. For the same compound, the mortality at 0.02 mg in the test with Boophilus microplus [2] is ≥ 80%.

Regarding `CC(=O)NC1CCc2cc(C3=NOC(c4cc(Cl)cc(Cl)c4)(C(F)(F)F)C3)ccc21` (centres unmarked) [Example 3-3, N-{5-[5-(3,5-dichlorophenyl)-5-(trifluoromethyl)-4,5-dihydroisoxazol-3-yl]-2,3-dihydro-1H-inden-1-yl}acetamide], the mortality at 100 ppm in the test on Lucilia cuprina larvae (in Equus caballus) was ≥ 80%; in the test on Aulacophora femoralis, 100%; with Ctenocephalides felis (in Bos taurus), ≥ 80%; in the test with Musca domestica, ≥ 80%; in the test on Boophilus microplus [1], ≥ 80%. Besides, the mortality at 0.02 mg in the test on Boophilus microplus [2] is ≥ 80%.

Turning to `CCNC(=O)NC1CCc2cc(C3=NCC(c4cc(Cl)cc(Cl)c4)(C(F)(F)F)C3)ccc21` (centres unmarked) [Example 3-112, 1-{5-[3-(3,5-dichlorophenyl)-3-(trifluoromethyl)-3,4-dihydro-2H-pyrrol-5-yl]-2,3-dihydro-1H-inden-1-yl}-3-ethylurea], the mortality at 100 ppm in the test with Lucilia cuprina larvae (application rate 100 ppm, larvae in minced horse meat, 2 days) was ≥ 80%; in the test on Aulacophora femoralis it was 100%; in the test with Ctenocephalides felis (application rate 100 ppm in cattle blood, adult unfed fleas, 2 days), ≥ 80%; with Musca domestica (application rate 100 ppm, adults, 2 days), ≥ 80%; in the test with Boophilus microplus [1] (application rate 100 ppm, adult engorged female ticks immersed one minute, 7 days), ≥ 80%. Moreover, the mortality at 0.02 mg in the test with Boophilus microplus [2] (application rate 20 μg/animal injected, adult engorged female ticks, 7 days) was ≥ 80%.

For `NC1CCCc2cc(C3=NOC(c4cc(Cl)cc(Cl)c4)(C(F)(F)F)C3)ccc21` (centres unmarked) [Example 3-211, 6-[5-(3,5-dichlorophenyl)-5-(trifluoromethyl)-4,5-dihydroisoxazol-3-yl]-1,2,3,4-tetrahydronaphthalen-1-amine], the mortality at 100 ppm with Aulacophora femoralis came out at 100%. Also, in the test with Boophilus microplus [2], the mortality at 0.02 mg is ≥ 80%.

Take `CCNC(=O)N1CCc2cc(C3=NOC(c4cc(Cl)cc(Cl)c4)(C(F)(F)F)C3)ccc21` (centres unmarked) [Example 3-638, 5-[5-(3,5-dichlorophenyl)-5-(trifluoromethyl)-4,5-dihydroisoxazol-3-yl]-N-ethyl-2,3-dihydro-1H-indol-1-carboxamide]: the mortality at 100 ppm in the test with Lucilia cuprina larvae (in Equus caballus) was ≥ 80%; with Aulacophora femoralis, 100%; with Ctenocephalides felis (in Bos taurus) it was ≥ 80%; in the test with Musca domestica, ≥ 80%. The mortality at 0.02 mg in the test on Boophilus microplus [2] was ≥ 80%.

For the origin of these results see patent US20110071141A1, “Pesticidial Condensed-Ring Aryl Compounds” (Bayer CropScience AG, priority 2008, published 2011).
